Laboratory results from PubChem BioAssay AID2060345 (Molecular Pharmacology Branch, DTP, NCI, 2025).
pIC50: −log10 of the molar value. Values joined by “and” are separate entries in the source; they are usually repeats but may differ in a detail not shown here. Equal entries are not always repeated.

System: MALME-3M multicell spheroids, viability
Experiment: Anticancer human tumor MALME-3M cell line growth inhibition [TAK];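 also: spheroids exposed to drugs for seven days before readout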
Details: for viability, T/C: stronger effect = lower value; active = viability on the fitted dose curve at most 10% of control; inactive = the rest
Description: Combinatorial screen of targeted agents with TAK-243 and ipatasertib in multi-cell type tumor spheroids
A high-throughput screen of multi-cell type tumor spheroids was designed to identify active combinations of targeted small molecules and TAK-243 or ipatasertib. Complex spheroids include a stromal component modeled by human endothelial cells (HUVEC) and fibroblasts modeled by human mesenchymal stem cells (MSCs). The concentration ranges selected for each drug and investigational agent were based upon clinically achievable concentrations if the clinical Cmax of the agent was known.
Compounds. The drugs and investigational agents: TAK-243 (785004), ipatasertib (767898), everolimus (733504), selumetinib (741078), bortezomib (756655), trametinib (758246), ixazomib (758254), vemurafenib (761431), dabrafenib (764134), sapanisertib (764658), alpelisib (765974), and copanlisib (816437), were obtained from the National Cancer Institute (NCI) Developmental Therapeutics Program Chemical Repository. The FDA-approved anticancer drug set is available from the NCI Developmental Therapeutics Program. […] The stock solutions were prepared in dimethyl sulfoxide (DMSO, Sigma-Aldrich, St. Louis, MO, cat. D2650) at 800-fold the tested concentration and stored at -70 degrees C prior to their use. All drugs and investigational agents were tested over a range starting from a high concentration at or near the clinical Cmax and decreasing in half-log increments. If the clinical Cmax for an agent had not been determined, the highest concentration tested was 10 microM.
NCI60 Cell Culture. NCI60 cell lines were obtained from the NCI Developmental Therapeutics Program Tumor Repository. For each lot of cells, the Repository performed Applied Biosystems AmpFLSTR Identifiler testing with PCR amplification to confirm consistency with the published Identifier STR profile for each cell line. Cells were kept in continuous culture for no more than 20 passages. The optimal seeding densities for each of the cell lines at each time point assessed were determined prior to performing the concentration response studies. Briefly, the NCI60 human tumor lines were grown as monolayers in RPMI 1640 medium supplemented with 10% FBS and 2 mmol/L L-glutamine.
An additional 2 lines were from the NCI60 cell line panel including melanomas, MALME-3M and SK-MEL-2. Pooled donor human umbilical vein endothelial cells (HUVEC, Lonza, cat. CC-2519) and human mesenchymal stem cells (hMSC, Lonza, cat. PT-2501) were purchased from Lonza (Walkersville, MD).
PDMR cell lines were grown in complete medium (DC medium): Dulbecco's modified Eagle's medium (DMEM)/F12 supplemented with 5% fetal bovine serum (FBS), 2 mM L-glutamine, 100 U/mL penicillin and 100 µg/ml streptomycin, 0.4 µg/ml hydrocortisone, 10 ng/ml epidermal growth factor (EGF) recombinant human protein, 24 µg/mL adenine, and 0.1 mg/mL primocin. During culture from frozen stock vials, PDMR cells were cultured in the same medium containing 10 µM Y-27632 (see Table 3). The PDCs were cultured in complete DMEM/F12 media without 10 microM Y-27632 dihydrochloride for at least two passages prior to the screen. The pooled donor HUVEC and hMSC were cultured in endothelial cell growth medium 2 (PromoCell, Heidelberg, Germany, cat. C-22011) and mesenchymal stem cell growth medium 2 (PromoCell, cat. C-28009), respectively. For all experiments, HUVEC and hMSC were used at passages </=5.
For the pre-screen, cell seeding densities were determined from a titration spanning the range from 5,000 to 313 cells per well. The mct-spheroids including 60% malignant cells, 25% HUVEC and 15% MSC dispensed as a mixture into U-bottom Ultra-Low Attachment 384-well plates (Corning, NY)
High-throughput Drug Combination Screening.
Prior to their inoculation into 384-well plates, malignant cells, HUVEC, and hMSC were removed from T flasks using TrypLE express (Thermo Fisher Scientific, cat. 12605036) and harvested by centrifugation for 5 min at 233 x g. […]

[1] = curve of first compound, second compound 0.3 µM
[2] = curve of first compound, second compound 0.949 µM
[3] = curve of first compound, second compound 3 µM
[4] = curve of first compound, second compound 9.49 µM
[5] = curve of first compound, second compound 30 µM
[6] = second compound 0.3 µM, first compound 0.00316 µM
[7] = second compound 0.3 µM, first compound 0.01 µM
[8] = second compound 0.3 µM, first compound 0.0316 µM
[9] = second compound 0.3 µM, first compound 0.1 µM
[10] = second compound 0.949 µM, first compound 0.00316 µM
[11] = second compound 0.949 µM, first compound 0.01 µM
[12] = second compound 0.949 µM, first compound 0.0316 µM
[13] = second compound 0.949 µM, first compound 0.1 µM
[14] = second compound 3 µM, first compound 0.00316 µM
[15] = second compound 3 µM, first compound 0.01 µM
[16] = second compound 3 µM, first compound 0.0316 µM
[17] = second compound 3 µM, first compound 0.1 µM
[18] = second compound 9.49 µM, first compound 0.00316 µM
[19] = second compound 9.49 µM, first compound 0.01 µM
[20] = second compound 9.49 µM, first compound 0.0316 µM
[21] = second compound 9.49 µM, first compound 0.1 µM
[22] = second compound 30 µM, first compound 0.00316 µM
[23] = second compound 30 µM, first compound 0.01 µM
[24] = second compound 30 µM, first compound 0.0316 µM
[25] = second compound 30 µM, first compound 0.1 µM

COc1c(OCCCN2CCOCC2)ccc2c3n(c(=NC(=O)c4cnc(N)nc4)nc12)CCN3 + CC(C)NCC(C(=O)N1CCN(c2ncnc3c2C(C)CC3O)CC1)c1ccc(Cl)cc1
active: viability, T/C (second compound 3 µM, first compound 1 µM) 10.6% | viability, T/C (second compound 30 µM, first compound 1 µM) 6.33%
inactive: viability, T/C [6] 109% | viability, T/C [7] 96.3% | viability, T/C [8] 76.3% | viability, T/C [9] 62.2% | viability, T/C (second compound 0.3 µM, first compound 0.316 µM) 23.1% | viability, T/C (second compound 0.3 µM, first compound 1 µM) 12.3% | viability, T/C [10] 98.4% | viability, T/C [11] 95% | viability, T/C [12] 76.2% | viability, T/C [13] 55.3% | viability, T/C (second compound 0.949 µM, first compound 0.316 µM) 22.3% | viability, T/C (second compound 0.949 µM, first compound 1 µM) 11.7% | viability, T/C [14] 82.3% | viability, T/C [15] 81.8% | viability, T/C [16] 63.1% | viability, T/C [17] 43.6% | viability, T/C (second compound 3 µM, first compound 0.316 µM) 16.7% | viability, T/C [18] 69.8% | viability, T/C [19] 72.8% | viability, T/C [20] 54.2% | viability, T/C [21] 31.3% | viability, T/C (second compound 9.49 µM, first compound 0.316 µM) 15.3% | viability, T/C (second compound 9.49 µM, first compound 1 µM) 11.8% | viability, T/C [22] 45.8% | viability, T/C [23] 56.7% | viability, T/C [24] 39.3% | viability, T/C [25] 26.5% | viability, T/C (second compound 30 µM, first compound 0.316 µM) 10.6%
7.18: pIC50 [3]
6.96: pIC50 [2]
6.90: pIC50 [1]
7.38: pIC50 [4]
8.23: pIC50 [5]

CC(=O)Nc1cccc(-n2c(=O)n(C3CC3)c(=O)c3c(Nc4ccc(I)cc4F)n(C)c(=O)c(C)c32)c1
9.55 and 9.53: pIC50 (curve of compound)
inactive: viability, T/C (compound 94.9 pM) 92.9% and 86.3% | viability, T/C (compound 0.0003 µM) 48.6% and 49.9% | viability, T/C (compound 0.000949 µM) 20.2% and 18.5% | viability, T/C (compound 0.003 µM) 15.9% and 15.3%
active: viability, T/C (compound 0.00949 µM) 9.62% and 9.1% | viability, T/C (compound 0.03 µM) 5.56% and 5.65%

CC(C)n1nc(-c2ccc3oc(N)nc3c2)c2c(N)ncnc21 + CC(C)NCC(C(=O)N1CCN(c2ncnc3c2C(C)CC3O)CC1)c1ccc(Cl)cc1
8.28: pIC50 [3]
> 9.50: pIC50 [5]
inactive: viability, T/C (second compound 0.3 µM, first compound 0.000316 µM) 87.8% | viability, T/C (second compound 0.3 µM, first compound 0.001 µM) 76.1% | viability, T/C [6] 69.3% | viability, T/C [7] 55.7% | viability, T/C [8] 31.3% | viability, T/C [9] 11.2% | viability, T/C (second compound 0.949 µM, first compound 0.000316 µM) 81.6% | viability, T/C (second compound 0.949 µM, first compound 0.001 µM) 74.7% | viability, T/C [10] 65.6% | viability, T/C [11] 46.6% | viability, T/C [12] 23.1% | viability, T/C (second compound 3 µM, first compound 0.000316 µM) 67.6% | viability, T/C (second compound 3 µM, first compound 0.001 µM) 61.1% | viability, T/C [14] 52.4% | viability, T/C [15] 45.8% | viability, T/C [16] 14.5% | viability, T/C (second compound 9.49 µM, first compound 0.000316 µM) 62% | viability, T/C (second compound 9.49 µM, first compound 0.001 µM) 56.7% | viability, T/C [18] 43.7% | viability, T/C [19] 22.5% | viability, T/C (second compound 30 µM, first compound 0.000316 µM) 36.5% | viability, T/C (second compound 30 µM, first compound 0.001 µM) 37.5% | viability, T/C [22] 28.6% | viability, T/C [23] 17.2% | viability, T/C [24] 8.52%
8.74: pIC50 [4]
active: viability, T/C [13] 10% | viability, T/C [17] 6.89% | viability, T/C [20] 9.06% | viability, T/C [21] 4.23% | viability, T/C [25] 4.01%
7.92: pIC50 [1]
8.11: pIC50 [2]

CC(C)(C)c1nc(-c2cccc(NS(=O)(=O)c3c(F)cccc3F)c2F)c(-c2ccnc(N)n2)s1
inactive: viability, T/C (compound 0.0316 µM) 21.4% and 24.8% | viability, T/C (compound 0.1 µM) 22.8% and 21.5% | viability, T/C (compound 0.316 µM) 20.7% and 21.4% | viability, T/C (compound 1 µM) 22.4% and 21.4% | viability, T/C (compound 3.16 µM) 21.2% and 23.6% | viability, T/C (compound 10 µM) 29.8% and 27.6%
> 7.50: pIC50 (curve of compound)

CC(C)CC(NC(=O)CNC(=O)c1cc(Cl)ccc1Cl)B1OC(=O)CC(CC(=O)O)(C(=O)O)O1 (centres undefined)
inactive: viability, T/C (compound 0.000316 µM) 89.2% and 116% | viability, T/C (compound 0.001 µM) 86.8% and 91.6% | viability, T/C (compound 0.00316 µM) 88.2% and 98.5% | viability, T/C (compound 0.01 µM) 88.2% and 96%
active: viability, T/C (compound 0.0316 µM) 7.17% and 7.01% | viability, T/C (compound 0.1 µM) 0.41% and 1.22%
7.76 and 7.74: pIC50 (curve of compound)

CC(C)NCC(C(=O)N1CCN(c2ncnc3c2C(C)CC3O)CC1)c1ccc(Cl)cc1 (centres undefined)
< 4.52 and 4.63 and 4.83: pIC50 (compound alone, run of 02/20/2020)
inactive: viability, T/C (compound 9.49 µM) 76% [middle of 10 runs] | viability, T/C (compound 30 µM) 50.4% [middle of 10 runs]
